{"source": "ChEMBL document CHEMBL2073845", "about": "“Structure, function, and regional distribution of the organic cation transporter OCT3 in the kidney” (Am J Physiol Renal Physiol, 2000)", "key": {"OCT3 (SLC22A3) [1]": {"biological_target": "T1, OCT3 (SLC22A3) (Mus musculus, UniProt Q9WTW5)", "T1 sequence (Q9WTW5 whole entry)": "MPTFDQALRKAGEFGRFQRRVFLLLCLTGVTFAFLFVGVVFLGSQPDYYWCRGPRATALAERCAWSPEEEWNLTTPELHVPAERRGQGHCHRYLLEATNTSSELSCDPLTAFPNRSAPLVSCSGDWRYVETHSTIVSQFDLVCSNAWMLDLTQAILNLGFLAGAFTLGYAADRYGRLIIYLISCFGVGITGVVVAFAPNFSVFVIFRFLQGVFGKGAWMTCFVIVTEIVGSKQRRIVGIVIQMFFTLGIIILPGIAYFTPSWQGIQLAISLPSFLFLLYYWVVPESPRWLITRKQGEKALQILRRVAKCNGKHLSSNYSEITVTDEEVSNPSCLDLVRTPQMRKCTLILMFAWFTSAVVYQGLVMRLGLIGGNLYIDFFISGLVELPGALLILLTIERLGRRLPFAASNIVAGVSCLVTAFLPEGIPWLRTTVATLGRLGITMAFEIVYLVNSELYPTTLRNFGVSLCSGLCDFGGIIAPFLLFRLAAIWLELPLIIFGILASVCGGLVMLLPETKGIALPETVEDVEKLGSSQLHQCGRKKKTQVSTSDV", "assay": "TP_TRANSPORTER: inhibition of TEA uptake (TEA: 20 uM, MPP+: 5000 uM) in OCT3-expressing HRPE cells", "type": "functional, cell-based", "settings": "human, HRPE cells that express OCT3, probe TEA"}, "[2]": {"biological_target": "T2, Solute carrier family 22 member 3 (Homo sapiens, UniProt O75751)", "T2 sequence (O75751 whole entry)": "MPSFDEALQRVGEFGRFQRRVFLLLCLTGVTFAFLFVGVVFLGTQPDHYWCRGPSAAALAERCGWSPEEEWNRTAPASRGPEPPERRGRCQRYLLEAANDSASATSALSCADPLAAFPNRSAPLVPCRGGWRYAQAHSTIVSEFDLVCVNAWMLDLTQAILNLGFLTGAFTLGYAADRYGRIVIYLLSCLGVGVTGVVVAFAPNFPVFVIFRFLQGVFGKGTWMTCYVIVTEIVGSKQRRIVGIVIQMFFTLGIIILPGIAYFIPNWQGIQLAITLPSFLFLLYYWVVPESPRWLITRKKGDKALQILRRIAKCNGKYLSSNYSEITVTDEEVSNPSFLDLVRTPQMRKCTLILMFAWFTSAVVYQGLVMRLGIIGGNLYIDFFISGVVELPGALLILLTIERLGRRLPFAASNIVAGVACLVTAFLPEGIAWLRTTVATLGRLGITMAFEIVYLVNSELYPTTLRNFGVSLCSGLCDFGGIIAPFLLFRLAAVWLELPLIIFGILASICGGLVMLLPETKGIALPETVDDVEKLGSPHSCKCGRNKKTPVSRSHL", "assay": "TP_TRANSPORTER: inhibition of MPP+ uptake in OCT3-expressing HRPE cells", "type": "functional, cell-based"}, "[3]": {"biological_target": "T3, Solute carrier family 22 member 3 (Mus musculus, UniProt Q9WTW5)", "T3 sequence (Q9WTW5 whole entry)": "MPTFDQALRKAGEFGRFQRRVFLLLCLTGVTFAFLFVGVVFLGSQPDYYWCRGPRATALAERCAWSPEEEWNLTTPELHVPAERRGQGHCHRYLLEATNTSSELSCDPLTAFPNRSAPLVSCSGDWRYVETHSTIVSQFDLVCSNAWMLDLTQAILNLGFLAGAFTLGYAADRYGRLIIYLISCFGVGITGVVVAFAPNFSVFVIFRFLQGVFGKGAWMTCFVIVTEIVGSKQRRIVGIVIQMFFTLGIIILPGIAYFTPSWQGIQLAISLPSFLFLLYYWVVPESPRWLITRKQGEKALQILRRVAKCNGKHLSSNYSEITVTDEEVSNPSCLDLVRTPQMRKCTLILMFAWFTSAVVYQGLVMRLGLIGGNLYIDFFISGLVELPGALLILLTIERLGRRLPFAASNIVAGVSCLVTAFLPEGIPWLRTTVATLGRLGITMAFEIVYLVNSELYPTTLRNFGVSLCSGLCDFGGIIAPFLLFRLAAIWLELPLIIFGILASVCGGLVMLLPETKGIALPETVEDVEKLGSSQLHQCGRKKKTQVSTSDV", "assay": "TP_TRANSPORTER: uptake in Xenopus laevis oocytes", "type": "functional, cell-based", "settings": "oocyte"}, "[4]": {"biological_target": "T3, Solute carrier family 22 member 3", "assay": "TP_TRANSPORTER: inhibition of TEA uptake (TEA: 20 uM, Guanidine: 5000 uM) in OCT3-expressing HRPE cells", "type": "functional, cell-based", "settings": "human"}, "OCT3 (SLC22A3) [5]": {"biological_target": "T1, OCT3 (SLC22A3)", "assay": "TP_TRANSPORTER: inhibition of TEA uptake (TEA: 20 uM, MPTP: 5000 uM) in OCT3-expressing HRPE cells", "type": "functional, cell-based", "settings": "human, HRPE cells that express OCT3, probe TEA"}, "OCT3 (SLC22A3) [6]": {"biological_target": "T1, OCT3 (SLC22A3)", "assay": "in vitro", "settings": "human, HRPE cells that express OCT3, probe TEA"}, "OCT3 (SLC22A3) [7]": {"biological_target": "T1, OCT3 (SLC22A3)", "assay": "in vitro", "settings": "human, HRPE cells that express OCT3, probe TEA", "remark": "listed apart in the source"}, "[8]": {"biological_target": "T3, Solute carrier family 22 member 3", "assay": "TP_TRANSPORTER: inhibition of TEA uptake (TEA: 20 uM, NMN: 5000 uM) in OCT3-expressing HRPE cells", "type": "functional, cell-based", "settings": "human"}, "[9]": {"biological_target": "T2, Solute carrier family 22 member 3", "assay": "TP_TRANSPORTER: uptake in OCT3-expressing HRPE cells", "type": "functional, cell-based"}, "[10]": {"substrate": "CC[N+](CC)(CC)CC", "assay": "cells, lysate or membranes named"}}}
{"molecule": "C[n+]1ccc(-c2ccccc2)cc1", "values": [{"measurement": "inhibition at 5000 µM", "setting": "OCT3 (SLC22A3) [1]", "result": "> 90", "unit": "%"}, {"measurement": "Ki", "setting": "[2]", "result": 54, "unit": "µM"}, {"measurement": "Activity", "setting": "[3]", "result": "substrate [+]"}]}
{"molecule": "N=C(N)N", "note": "[GUANIDINE]", "values": [{"measurement": "Ki", "setting": "[2]", "result": 6200, "unit": "µM"}, {"measurement": "Inhibition", "setting": "[4]", "result": "inhibitor [60-70 % inhibition]"}, {"measurement": "Activity", "setting": "[3]", "result": "substrate [+]"}]}
{"molecule": "CN(C)CCCN1c2ccccc2CCc2ccccc21", "note": "[IMIPRAMINE]", "values": [{"measurement": "Ki", "setting": "[2]", "result": 42, "unit": "µM"}]}
{"molecule": "CN1CC=C(c2ccccc2)CC1", "values": [{"measurement": "inhibition at 5000 µM", "setting": "OCT3 (SLC22A3) [5]", "result": "> 90", "unit": "%"}]}
{"molecule": "CNCCCN1c2ccccc2CCc2ccccc21", "note": "[DESIPRAMINE]", "values": [{"measurement": "Ki", "setting": "[2]", "result": 14, "unit": "µM"}]}
{"molecule": "CN/C(=N/CCSCc1nc[nH]c1C)NC#N", "note": "[CIMETIDINE]", "values": [{"measurement": "inhibition at 5000 µM", "setting": "OCT3 (SLC22A3) [6]", "result": "> 90", "unit": "%"}]}
{"molecule": "CCN(CC)CCNC(=O)c1ccc(N)cc1", "note": "[PROCAINAMIDE]", "values": [{"measurement": "Ki", "setting": "[2]", "result": 738, "unit": "µM"}]}
{"molecule": "Clc1cccc(Cl)c1N=C1NCCN1", "note": "[CLONIDINE]", "values": [{"measurement": "Ki", "setting": "[2]", "result": 373, "unit": "µM"}, {"measurement": "inhibition at 5000 µM", "setting": "OCT3 (SLC22A3) [7]", "result": "> 90", "unit": "%"}]}
{"molecule": "CNC(=O)c1cccnc1", "note": "[NICOTINYL METHYLAMIDE]", "values": [{"measurement": "Inhibition", "setting": "[8]", "result": "inhibitor [60-70 % inhibition]"}]}
{"molecule": "CC[N+](CC)(CC)CC", "note": "[TETRYLAMMONIUM]", "values": [{"measurement": "Activity", "setting": "[9]", "result": "substrate [+]"}, {"measurement": "Ki", "setting": "[2]", "result": 1370, "unit": "µM"}, {"measurement": "Activity", "setting": "[3]", "result": "substrate [+]"}]}
{"molecule": "Solute carrier family 22 member 3 (Mus musculus) (protein) MPTFDQALRKAGEFGRFQRRVFLLLCLTGVTFAFLFVGVVFLGSQPDYYWCRGPRATALAERCAWSPEEEWNLTTPELHVPAERRGQGHCHRYLLEATNTSSELSCDPLTAFPNRSAPLVSCSGDWRYVETHSTIVSQFDLVCSNAWMLDLTQAILNLGFLAGAFTLGYAADRYGRLIIYLISCFGVGITGVVVAFAPNFSVFVIFRFLQGVFGKGAWMTCFVIVTEIVGSKQRRIVGIVIQMFFTLGIIILPGIAYFTPSWQGIQLAISLPSFLFLLYYWVVPESPRWLITRKQGEKALQILRRVAKCNGKHLSSNYSEITVTDEEVSNPSCLDLVRTPQMRKCTLILMFAWFTSAVVYQGLVMRLGLIGGNLYIDFFISGLVELPGALLILLTIERLGRRLPFAASNIVAGVSCLVTAFLPEGIPWLRTTVATLGRLGITMAFEIVYLVNSELYPTTLRNFGVSLCSGLCDFGGIIAPFLLFRLAAIWLELPLIIFGILASVCGGLVMLLPETKGIALPETVEDVEKLGSSQLHQCGRKKKTQVSTSDV", "values": [{"measurement": "Km", "setting": "[10]", "result": 1900, "unit": "µM"}]}
